Each structure is given as a SMILES string. Values joined by “and” are separate entries in the source; they are usually repeats but may differ in a detail not shown here. Identical values can stand only once.

Test [1] has as its target T1, 5-HT2C receptor (Homo sapiens, UniProt P28335).
T1 construct: expressed in transfected cells
T1 sequence (P28335 33-458): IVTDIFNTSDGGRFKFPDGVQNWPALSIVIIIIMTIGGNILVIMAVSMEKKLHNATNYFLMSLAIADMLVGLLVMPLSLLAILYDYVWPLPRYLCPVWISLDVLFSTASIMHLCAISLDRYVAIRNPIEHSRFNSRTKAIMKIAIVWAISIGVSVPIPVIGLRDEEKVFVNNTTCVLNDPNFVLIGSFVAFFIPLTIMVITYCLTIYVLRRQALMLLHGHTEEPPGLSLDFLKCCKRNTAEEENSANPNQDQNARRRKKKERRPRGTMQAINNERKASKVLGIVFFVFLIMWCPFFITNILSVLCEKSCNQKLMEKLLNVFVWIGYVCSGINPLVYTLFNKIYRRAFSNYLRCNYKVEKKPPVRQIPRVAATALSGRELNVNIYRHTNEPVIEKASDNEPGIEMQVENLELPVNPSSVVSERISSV
In words: Equilibrium receptor binding, recombinant human receptor.

Test [2] deals with T2, 5-HT6 (Homo sapiens, UniProt P50406). In words: Functional antagonism (Table 69).
Test [3] has as its target T3, adrenergic α1A receptor (Homo sapiens, UniProt P35348).
T3 construct: expressed in transfected cells
T3 sequence (P35348 1-466): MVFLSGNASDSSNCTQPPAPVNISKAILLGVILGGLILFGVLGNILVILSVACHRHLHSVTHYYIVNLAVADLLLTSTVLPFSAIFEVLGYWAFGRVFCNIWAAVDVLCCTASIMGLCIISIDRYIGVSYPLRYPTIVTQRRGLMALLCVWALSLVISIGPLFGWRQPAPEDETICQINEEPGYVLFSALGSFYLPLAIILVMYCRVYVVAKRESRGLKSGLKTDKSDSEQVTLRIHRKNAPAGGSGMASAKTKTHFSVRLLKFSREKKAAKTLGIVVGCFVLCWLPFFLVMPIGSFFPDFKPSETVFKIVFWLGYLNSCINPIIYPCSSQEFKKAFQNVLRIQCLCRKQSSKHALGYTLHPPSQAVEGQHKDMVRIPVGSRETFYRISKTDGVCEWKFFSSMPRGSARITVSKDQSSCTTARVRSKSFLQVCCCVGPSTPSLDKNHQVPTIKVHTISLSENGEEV
Briefly: G-protein-dependent signal transduction, intracellular Ca2+ mobilization. The settings on record: for IC50: α1A, Ca2+ mobilization, read-out: IC50, functional antagonist. The format is cell-based.

In test [4] the target is T4, 5-HT7 (Homo sapiens, UniProt P34969).
T4 construct: expressed in transfected cells
In words: Equilibrium receptor binding, recombinant human receptor.

In test [5] the target is Sigma 1 (Homo sapiens, UniProt Q99720). Briefly: Equilibrium binding (Table 69).
Test [6] concerns the target α2B (Homo sapiens, UniProt P18089). Briefly: Functional antagonism, cAMP production.
Test [7] concerns the target dopamine (D) transporter (Homo sapiens, UniProt Q01959). In words: biochemical.
Test [8] concerns the target T5, 5-HT2B (Homo sapiens, UniProt P41595).
T5 construct: expressed in transfected cells
Briefly: G-protein-dependent signal transduction, turnover of inositol triphosphate (IP). The format is cell-based. The settings on record: read-out: IC50 (nM) (Antagonist).

In test [9] the target is T6, adrenergic alpha-2C receptor (Alpha2C) (Homo sapiens, UniProt P18825).
T6 construct: expressed in transfected cells
T6 sequence (P18825 1-462): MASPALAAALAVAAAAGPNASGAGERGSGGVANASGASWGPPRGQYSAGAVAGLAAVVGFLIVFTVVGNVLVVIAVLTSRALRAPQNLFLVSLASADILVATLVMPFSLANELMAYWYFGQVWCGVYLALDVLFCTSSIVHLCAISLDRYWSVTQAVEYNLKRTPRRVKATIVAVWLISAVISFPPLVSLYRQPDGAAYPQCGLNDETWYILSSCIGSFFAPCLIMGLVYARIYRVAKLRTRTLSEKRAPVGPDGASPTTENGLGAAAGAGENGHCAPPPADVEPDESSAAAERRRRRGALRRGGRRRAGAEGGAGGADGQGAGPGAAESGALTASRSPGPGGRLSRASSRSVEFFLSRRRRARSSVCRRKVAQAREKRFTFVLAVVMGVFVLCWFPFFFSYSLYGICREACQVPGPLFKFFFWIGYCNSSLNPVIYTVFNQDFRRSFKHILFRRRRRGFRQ
Briefly: Equilibrium receptor binding, recombinant human receptor.

For test [10], the target named is T7, histamine H1 receptor (Homo sapiens, UniProt P35367).
T7 construct: expressed in transfected cells
Briefly: G-protein-independent signal transduction, β-arrestin signaling. The class given is cell-based. The settings on record: for IC50: H1, β-arrestin signaling, read-out: IC50, functional antagonist.

Test [11] concerns the target Sigma 2 (Homo sapiens, UniProt Q5BJF2). Briefly: Equilibrium binding (Table 69).
The target of test [12] is T8, 5-HT1A receptor (Homo sapiens, UniProt P08908).
T8 construct: expressed in transfected cells
T8 sequence (P08908 1-422): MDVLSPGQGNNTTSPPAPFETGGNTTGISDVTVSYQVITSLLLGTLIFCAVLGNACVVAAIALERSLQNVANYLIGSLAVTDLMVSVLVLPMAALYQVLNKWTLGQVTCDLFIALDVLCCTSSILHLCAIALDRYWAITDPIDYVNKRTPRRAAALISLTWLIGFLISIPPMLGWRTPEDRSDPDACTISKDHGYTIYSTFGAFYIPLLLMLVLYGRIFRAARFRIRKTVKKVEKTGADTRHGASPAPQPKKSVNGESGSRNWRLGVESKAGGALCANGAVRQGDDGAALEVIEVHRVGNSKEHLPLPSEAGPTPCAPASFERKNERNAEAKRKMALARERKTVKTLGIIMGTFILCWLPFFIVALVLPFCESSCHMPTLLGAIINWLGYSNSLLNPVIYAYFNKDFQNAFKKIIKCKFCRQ
In words: Equilibrium receptor binding, recombinant human receptor.

The target of test [13] is T9, adrenergic alpha-2A receptor (Homo sapiens, UniProt P08913).
T9 construct: expressed in transfected cells
In words: Functional antagonism, ligand-induced intracellular calcium mobilization. The format is cell-based. The settings on record: read-out: IC50, functional antagonist. The procedure: Quantitation was based on peak area ratio of the analytes versus their stable labeled internal standards. A weighted (1/C2), linear regression was performed to determine the concentration of the analytes. All regressions and figures presented in this validation report were generated by MDS Sciex Analyst version 1.4.2 and Thermo Electron Corporation Watson LIMS software, version 7.0.0.01b. […] Select receptors were analyzed in ligand-induced intracellular calcium mobilization.

Test [14] deals with T2, 5-HT6. In words: Equilibrium receptor binding, recombinant human receptor. Also noted: expressed in transfected cells.
The mark [15] stands for this setting: read-out: IC50 (nM) (Antagonist).

T7 sequence (P35367 whole entry): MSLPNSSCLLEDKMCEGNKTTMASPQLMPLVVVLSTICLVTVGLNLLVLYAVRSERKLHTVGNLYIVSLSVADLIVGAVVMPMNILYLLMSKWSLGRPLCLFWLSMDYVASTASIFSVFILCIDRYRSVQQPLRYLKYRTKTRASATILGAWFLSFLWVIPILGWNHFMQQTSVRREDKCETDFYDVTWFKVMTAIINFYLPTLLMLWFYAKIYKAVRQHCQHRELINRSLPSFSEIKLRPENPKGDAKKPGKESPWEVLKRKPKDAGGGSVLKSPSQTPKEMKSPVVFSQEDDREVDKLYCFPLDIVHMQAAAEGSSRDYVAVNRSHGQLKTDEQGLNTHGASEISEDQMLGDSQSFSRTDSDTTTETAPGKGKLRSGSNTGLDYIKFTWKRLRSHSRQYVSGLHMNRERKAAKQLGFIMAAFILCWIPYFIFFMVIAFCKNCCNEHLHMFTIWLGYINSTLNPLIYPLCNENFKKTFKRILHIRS
T2 sequence (P50406 whole entry): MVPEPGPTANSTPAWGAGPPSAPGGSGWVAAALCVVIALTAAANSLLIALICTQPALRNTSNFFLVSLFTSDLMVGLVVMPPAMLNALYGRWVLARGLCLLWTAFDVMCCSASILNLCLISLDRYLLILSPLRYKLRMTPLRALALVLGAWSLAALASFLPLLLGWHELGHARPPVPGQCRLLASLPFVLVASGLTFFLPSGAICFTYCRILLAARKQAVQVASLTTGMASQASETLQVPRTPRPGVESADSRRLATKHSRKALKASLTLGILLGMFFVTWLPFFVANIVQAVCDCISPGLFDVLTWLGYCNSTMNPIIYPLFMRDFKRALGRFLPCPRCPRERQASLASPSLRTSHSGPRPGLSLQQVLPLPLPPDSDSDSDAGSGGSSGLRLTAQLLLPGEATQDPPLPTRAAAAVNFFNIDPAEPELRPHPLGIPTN
T4 sequence (P34969 whole entry): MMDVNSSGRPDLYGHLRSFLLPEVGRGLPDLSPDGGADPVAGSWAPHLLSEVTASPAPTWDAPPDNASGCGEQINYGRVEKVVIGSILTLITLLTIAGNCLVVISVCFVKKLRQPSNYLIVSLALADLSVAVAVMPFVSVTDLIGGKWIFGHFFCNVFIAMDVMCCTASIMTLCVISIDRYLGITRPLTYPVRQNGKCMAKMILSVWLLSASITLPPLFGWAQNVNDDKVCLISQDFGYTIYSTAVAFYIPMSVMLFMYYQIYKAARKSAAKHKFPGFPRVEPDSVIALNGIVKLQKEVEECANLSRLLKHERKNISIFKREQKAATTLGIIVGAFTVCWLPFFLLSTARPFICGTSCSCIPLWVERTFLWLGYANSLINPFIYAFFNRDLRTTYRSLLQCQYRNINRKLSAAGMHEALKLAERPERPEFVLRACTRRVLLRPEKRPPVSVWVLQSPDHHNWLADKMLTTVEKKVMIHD
T9 sequence (P08913 whole entry): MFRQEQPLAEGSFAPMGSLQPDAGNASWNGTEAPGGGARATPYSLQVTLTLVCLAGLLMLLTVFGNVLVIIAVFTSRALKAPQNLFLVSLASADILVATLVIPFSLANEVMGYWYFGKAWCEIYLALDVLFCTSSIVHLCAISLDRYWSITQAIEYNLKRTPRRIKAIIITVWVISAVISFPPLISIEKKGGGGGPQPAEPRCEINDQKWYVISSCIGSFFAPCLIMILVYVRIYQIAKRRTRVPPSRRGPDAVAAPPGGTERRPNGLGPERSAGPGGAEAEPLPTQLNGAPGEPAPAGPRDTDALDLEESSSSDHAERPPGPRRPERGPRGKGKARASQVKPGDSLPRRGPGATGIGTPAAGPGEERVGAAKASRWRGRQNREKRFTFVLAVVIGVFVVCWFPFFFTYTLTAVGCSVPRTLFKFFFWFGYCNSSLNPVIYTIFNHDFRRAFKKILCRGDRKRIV
Sequence of Sigma 2 (Q5BJF2 whole entry): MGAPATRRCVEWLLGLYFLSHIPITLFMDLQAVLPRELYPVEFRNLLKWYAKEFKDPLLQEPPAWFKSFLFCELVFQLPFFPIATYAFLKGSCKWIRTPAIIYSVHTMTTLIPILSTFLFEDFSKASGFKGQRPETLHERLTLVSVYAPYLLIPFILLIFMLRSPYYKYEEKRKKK
Sequence of Sigma 1 (Q99720 whole entry): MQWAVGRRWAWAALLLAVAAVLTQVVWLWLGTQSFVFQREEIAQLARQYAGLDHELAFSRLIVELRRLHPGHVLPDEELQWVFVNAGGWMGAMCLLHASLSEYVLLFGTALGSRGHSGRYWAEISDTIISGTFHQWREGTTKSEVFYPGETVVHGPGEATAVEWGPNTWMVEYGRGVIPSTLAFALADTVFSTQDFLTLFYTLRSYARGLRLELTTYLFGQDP
Sequence of dopamine (D) transporter (Q01959 whole entry): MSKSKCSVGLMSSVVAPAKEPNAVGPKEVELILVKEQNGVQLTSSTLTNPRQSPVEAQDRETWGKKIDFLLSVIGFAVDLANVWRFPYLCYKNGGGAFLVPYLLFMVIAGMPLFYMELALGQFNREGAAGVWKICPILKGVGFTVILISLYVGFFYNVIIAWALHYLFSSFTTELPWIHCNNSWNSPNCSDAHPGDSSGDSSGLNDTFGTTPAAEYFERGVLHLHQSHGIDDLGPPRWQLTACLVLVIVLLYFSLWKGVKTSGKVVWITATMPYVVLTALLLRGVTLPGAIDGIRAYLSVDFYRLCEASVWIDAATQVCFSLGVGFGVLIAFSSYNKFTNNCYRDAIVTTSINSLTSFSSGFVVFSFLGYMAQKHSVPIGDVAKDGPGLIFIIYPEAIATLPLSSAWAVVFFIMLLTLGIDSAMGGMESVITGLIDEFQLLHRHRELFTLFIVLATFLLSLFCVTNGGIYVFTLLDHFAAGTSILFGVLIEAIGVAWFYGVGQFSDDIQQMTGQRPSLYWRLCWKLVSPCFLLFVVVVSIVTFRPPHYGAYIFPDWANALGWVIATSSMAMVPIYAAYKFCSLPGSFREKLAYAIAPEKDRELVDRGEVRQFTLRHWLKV
Sequence of α2B (P18089 whole entry): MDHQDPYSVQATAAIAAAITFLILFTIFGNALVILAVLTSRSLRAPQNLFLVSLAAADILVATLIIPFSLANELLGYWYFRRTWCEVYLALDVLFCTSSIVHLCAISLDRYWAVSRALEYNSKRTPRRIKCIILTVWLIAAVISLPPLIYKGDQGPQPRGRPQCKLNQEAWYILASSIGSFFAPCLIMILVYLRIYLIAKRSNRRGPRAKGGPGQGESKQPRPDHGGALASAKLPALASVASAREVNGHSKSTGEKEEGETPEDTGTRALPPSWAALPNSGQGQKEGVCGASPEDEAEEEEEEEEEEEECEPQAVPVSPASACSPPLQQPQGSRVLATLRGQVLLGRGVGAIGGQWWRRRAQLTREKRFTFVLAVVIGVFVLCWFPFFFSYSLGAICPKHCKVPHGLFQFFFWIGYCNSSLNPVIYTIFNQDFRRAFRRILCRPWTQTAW
T5 sequence (P41595 whole entry): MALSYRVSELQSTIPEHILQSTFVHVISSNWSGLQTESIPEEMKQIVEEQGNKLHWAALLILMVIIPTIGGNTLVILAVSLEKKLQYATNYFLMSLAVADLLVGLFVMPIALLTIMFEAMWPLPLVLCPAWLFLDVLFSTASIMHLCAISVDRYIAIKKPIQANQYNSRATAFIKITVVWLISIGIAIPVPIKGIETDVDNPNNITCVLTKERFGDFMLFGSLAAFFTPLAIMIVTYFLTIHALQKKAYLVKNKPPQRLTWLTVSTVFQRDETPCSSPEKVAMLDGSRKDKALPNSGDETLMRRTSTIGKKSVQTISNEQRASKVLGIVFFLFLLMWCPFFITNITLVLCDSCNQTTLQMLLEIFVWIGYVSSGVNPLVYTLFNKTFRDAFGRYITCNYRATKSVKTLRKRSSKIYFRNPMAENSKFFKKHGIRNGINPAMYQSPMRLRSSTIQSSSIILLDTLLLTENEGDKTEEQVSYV

On to `CNCCC=C1c2ccccc2C=Cc2ccccc21` [norcyclobenzaprine, 3-(5H-dibenzo[a,d]cyclohepten-5-ylidene)-N-methyl-1-propanamine], for which the Ki is 43 nM in test [1]; 140 nM in [4]; 120 nM in test [5]; over 10000 nM in [7]; 48 nM in test [9]; 480 nM in test [11]. The values for the inhibition constant (Ki) in [12] and in [14] were 76 nM and 1400 nM, respectively. For the same compound, the figures for the “Hill plot ratio (Hill slope)” value in test [1] (equilibrium binding) and in test [12] (equilibrium binding) were 1.40 and 4.07, respectively. The IC50 was 2800 nM in test [2]; 16 nM in [3]; 41000 nM in test [6]; 1400 nM in test [8]; 6.1 nM in test [10]; 6400 nM in test [13]. The “Four parameter Hill slope (or fit slope) ratio; Ca2+ signaling” value in test [3] (α-1A) is listed as 2.27. Further, the “Four parameter Hill slope (or fit slope) ratio; β-arrestin signaling” value in test [10] (H1) turned out to be 1.09.
Take `CN(C)CCC=C1c2ccccc2C=Cc2ccccc21` [cyclobenzaprine, 3-(5H-dibenzo[a,d]cyclohepten-5-ylidene)-N,N-dimethyl-1-propanamine]: the Ki in test [1] was 5.2 nM and 43 nM; in [4], 67 nM; in [7], over 10000 nM; in [9], 21 nM and 25 nM; in test [12], 1100 nM; in test [14], 480 nM. Further, the half-inhibitory concentration (IC50) in [2] was found to be 2000 nM; in test [3], 4.9 nM; in test [5] (setting [15]), 790 nM; in test [6], 9800 nM; in test [8] it was 760 nM; in [10] it was 2.7 nM. Moreover, the half-maximal inhibitory concentration (IC50) in test [11] (setting [15]) turned out to be 2000 nM; in test [13], 4300 nM.
